From publication PMC7555839 (Frontiers in Microbiology, 2020)
In brackets after ≈: the same amount, converted by molar mass. Where two headings read alike, the source gives them in different places.

What was measured:
[1] = tested on: E. coli strains; design: method as in Nehme et al., 2018; settings: broth dilution method, ref Nehme et al., 2018; cited from earlier work
[2] = tested on: MRSA strain; design: method as in Nehme et al., 2018; settings: broth dilution method, ref Nehme et al., 2018; cited from earlier work
[3] = tested on: Salmonella typhimurium TA100; settings: Positive control
[4] = tested on: Salmonella typhimurium TA1535; settings: Positive control
[5] = tested on: Salmonella typhimurium TA98; settings: Positive control
[6] = tested on: Salmonella typhimurium TA1537; assay: Ames test; settings: Positive control
[7] = tested on: Escherichia coli mutant [wp2 (pKM101)]; settings: Positive control, + S9, 4 µg/well
[8] = tested on: Staphylococcus aureus USA300 JE2; assay: Broth microdilution (MIC/MBC); type: cell-based; settings: USA300, broth microdilution, starter concentration of the tolerance assay, read-out: MIC value for USA300
[9] = tested on: MRSA strain 43484; assay: Mouse skin (wound) infection model, topical treatment; type: in vivo, Staphylococcus aureus; settings: 2%, 50 μl topical twice daily for 3 days, female mice, skin biopsies day 4
Experimental: To study the effect of topical treatment with JBC 1847 against MRSA strain 43484, a mouse skin infection model was established. Initially, female mice (18–22 g) were orally treated with 45 μl nurofen (20 mg ibuprofen/ml) and anaesthetized with 0.15 ml s.c. of Zoletil mix. The fur was removed from an area of 6 cm^2 and a part of epidermis was subsequently scraped off to obtain a 1 cm^2 superficial skin lesion. The mice were inoculated with 10 μl of a saline solution containing approximately 10^7 CFU. The day after inoculation, topical treatment with 50 μl test compound was initiated and performed twice daily for a 3-day period. Fucidic acid was included as a positive control, and vehicle treatment was included as a negative control. Through the entire study, the behavior and clinical signs of the mice were carefully observed. Mice were killed the day after last treatment, and skin biopsies from the wounded area were collected. The skin samples were homogenized using a Dispomixer and serially diluted in saline/Triton X. To determine the bacterial concentration, 20 μl spots were transferred to MRSA Brilliance agar plates (Oxoid, Thermo Scientific, Roskilde, Denmark) and incubated 20–48 h at 35°C.
Data were statically analyzed and visualized using RStudio v3.6.3 ([R Core Team, 2020]) and Microsoft excel. In general, the values reflecting the bacterial concentration (CFU/ml) were transformed into a logarithmic scale. In the growth and viability assay, the mean numbers of the bacterial concentrations from the triplicates were plotted against time and standard deviations shown as error bars. To investigate differences in bacterial concentration between treatment groups in the in vivo assay, multiple group comparisons were performed using ANOVA and P < 0.05 considered significant. The data was visualized in a standard box plot.

[10] = tested on: fusidic acid-resistant S. aureus isolates; design: method as in Castanheira et al., 2010; settings: ref Castanheira et al., 2010; cited from earlier work
[11] = tested on: plasma proteins; settings: cited from earlier work
[12] = tested on: S. aureus USA300; assay: Induced tolerance assay (23 days); settings: for MIC: Staphylococcus aureus

CN(C)CCCN1c2ccccc2Sc2ccccc21 [Promazine]
MIC [1]: 128 µg/mL (≈ 450 µM) | MIC [2]: 128 µg/mL (≈ 450 µM)

[N-]=[N+]=[N-].[Na+] [SA, Sodium azide, reference compound]
Mean number of reverse mutated colonies ([3]; TA100, −S9, 0.24 µg/well): 176.0 ± 46.13 | Mean number of reverse mutated colonies ([4]; TA1535, −S9, 0.24 µg/well): 111.0 ± 9.54

Nc1ccc2cc3ccccc3cc2c1 [2-AA, 2-Aminoanthracene, reference compound]
Mean number of reverse mutated colonies ([5]; TA98, + S9, 0.6 µg/well): 332.0 ± 36.66 | Mean number of reverse mutated colonies ([3]; TA100, + S9, 0.6 µg/well): 240.0 ± 49.15 | Mean number of reverse mutated colonies ([6]; TA1537, + S9, 0.6 µg/well): 60.00 ± 5.00 | Mean number of reverse mutated colonies [7]: 161.33 ± 18.90 | Mean number of reverse mutated colonies ([4]; TA1535, + S9, 0.6 µg/well): 34.00 ± 5.20

CC(=O)O[C@H]1C[C@@]2(C)[C@@H](C[C@@H](O)[C@H]3[C@@]4(C)CC[C@@H](O)[C@@H](C)[C@@H]4CC[C@@]32C)/C1=C(\CCC=C(C)C)C(=O)O [Fusidic acid, reference compound]
MIC [8]: 0.03 µg/mL (≈ 0.0581 µM) | Reduction of bacterial counts compared with the vehicle [9]: 1.5 log10 CFU | MIC values (highly elevated) [10]: ≥ 512 µg/mL | PPB (plasma protein binding) ([11]; ref Zeitlinger et al., 2011): approximately 98% | MIC ([12]; USA300, 24 h, read-out: MIC Day 1): 0.03 µg/mL (≈ 0.0581 µM) | MIC ([12]; USA300, 552 h, read-out: MIC Day 23): 7 µg/mL (≈ 13.5 µM) | Increase in MIC ([12]; tolerance assay, during the 23 days): 233 fold

COc1ccc2nc3cc(Cl)ccc3c(NCCCNCCCl)c2c1 [ICR 191, Acridine Mutagen (ICR 191), reference compound]
Mean number of reverse mutated colonies ([6]; TA1537, −S9, 0.2 µg/well): 54.67 ± 16.26

O=[N+]([O-])c1ccc2c(c1)Cc1ccccc1-2 [2-NF, 2-Nitrofluorene, reference compound]
Mean number of reverse mutated colonies ([5]; TA98, −S9, 2 µg/well): 268.00 ± 28.84

CO/N=C(\C(=O)N[C@@H]1C(=O)N2C(C(=O)O)=C(CSc3nc(=O)c(=O)[nH]n3C)CS[C@H]12)c1csc(N)n1 [ceftriaxone]
PPB (plasma protein binding) ([11]; ref Dutta et al., 2001): 90–95%
